Results on 28 molecules are retold here after US20100168102A9, “Amide Derivatives as Kinase Inhibitors” (Devgen NV, priority 2005, published 2010).

In general, IC50 refers to the concentration at which inhibition is half-maximal.

Counter-ions that a name gives are not always drawn. Like-named read-outs stand apart in the source and are kept apart here.

The target in one experiment is T1, PKC epsilon (Homo sapiens, UniProt Q02156).
T1 construct: purchased Invitrogen P2282
T1 sequence (Q02156 1-737): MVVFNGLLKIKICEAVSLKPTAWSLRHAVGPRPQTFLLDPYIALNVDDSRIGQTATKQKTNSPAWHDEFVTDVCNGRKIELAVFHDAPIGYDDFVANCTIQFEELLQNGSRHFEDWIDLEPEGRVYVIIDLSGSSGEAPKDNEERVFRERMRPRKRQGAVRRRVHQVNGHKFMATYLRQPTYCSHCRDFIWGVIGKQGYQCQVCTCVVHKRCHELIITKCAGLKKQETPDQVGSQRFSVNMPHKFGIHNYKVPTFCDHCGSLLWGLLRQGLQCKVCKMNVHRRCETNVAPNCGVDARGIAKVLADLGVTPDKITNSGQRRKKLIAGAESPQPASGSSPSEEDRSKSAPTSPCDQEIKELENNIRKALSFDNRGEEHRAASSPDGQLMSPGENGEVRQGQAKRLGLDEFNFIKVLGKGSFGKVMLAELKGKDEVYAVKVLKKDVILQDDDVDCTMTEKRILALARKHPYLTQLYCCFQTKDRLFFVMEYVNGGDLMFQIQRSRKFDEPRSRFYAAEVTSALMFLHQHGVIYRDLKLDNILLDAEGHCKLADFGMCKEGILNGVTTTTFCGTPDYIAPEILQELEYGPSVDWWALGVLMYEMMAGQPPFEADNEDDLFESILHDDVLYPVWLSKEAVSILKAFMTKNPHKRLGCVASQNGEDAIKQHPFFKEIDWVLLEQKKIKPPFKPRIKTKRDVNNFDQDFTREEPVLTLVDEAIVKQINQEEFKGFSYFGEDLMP
Kind of experiment: Biochemical assay for PKC epsilon (fluorescence polarization, Protein Kinase C Assay Kit, Red). The conditions noted are these: read-out: IC50 μM PKCε. The method, boiled down: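 PKC epsilon at 10 ng/ml final was preincubated 30 min at room temperature with compound in HEPES pH 7.4 with DTT and Triton X-100. ATP/protein substrate was then added in buffer with MgCl2 and CaCl2 for 80 min. The reaction was stopped with EDTA, phosphorylation was detected by fluorescence polarization with rhodamine tracer and anti-phosphoserine antibody, and IC50 values came from curve fits.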
(In fluorescence polarisation assays a small probe gives low polarisation when free and higher when bound to something large.)

Another experiment has as its target T2, human ROCKα/ROCKII mix (Homo sapiens, UniProt O75116).
T2 construct: purchased Upstate Biotechnology 14-451
The experiment in a line: Biochemical assay for ROCK (fluorescence polarization, ROCK IMAP Kit).

Where [1] appears, read: Table 2, compounds of Formula XIII.
[2] abbreviates: compounds of Formula XIV, Table 3.

T2 sequence (O75116 11-552 limits assumed): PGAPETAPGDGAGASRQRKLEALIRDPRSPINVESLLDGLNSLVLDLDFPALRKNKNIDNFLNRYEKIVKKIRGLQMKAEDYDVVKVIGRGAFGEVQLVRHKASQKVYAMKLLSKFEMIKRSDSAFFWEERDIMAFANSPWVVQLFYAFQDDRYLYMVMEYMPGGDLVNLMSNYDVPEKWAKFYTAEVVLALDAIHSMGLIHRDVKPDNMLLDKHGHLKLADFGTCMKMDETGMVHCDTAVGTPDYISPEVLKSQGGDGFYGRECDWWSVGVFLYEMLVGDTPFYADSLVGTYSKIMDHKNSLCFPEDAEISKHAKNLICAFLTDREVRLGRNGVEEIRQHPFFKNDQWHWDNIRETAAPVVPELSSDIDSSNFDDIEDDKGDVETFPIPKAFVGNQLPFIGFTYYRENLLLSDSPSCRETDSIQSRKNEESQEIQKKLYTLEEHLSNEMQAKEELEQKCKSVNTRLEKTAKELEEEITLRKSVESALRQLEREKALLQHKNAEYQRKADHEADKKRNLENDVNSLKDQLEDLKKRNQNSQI

On to `Cc1ccc(C)c(CC(=O)NCC(N)c2ccc(C(=O)Nc3ccncc3)cc2)c1` (centres unmarked) [Compound 144, 4-{1-Amino-2-[2-(2,5-dimethyl-phenyl)-aceylamino]-ethyl}-N-pyridin-4-yl-benzamide], for which the IC50 at PKC epsilon (setting [1]) and at human ROCKα/ROCKII mix (setting [1]) was 0.5 to 5 µM in each case.
As to `NC(c1ccc(C(=O)Nc2ccncc2)cc1)C1CCCN1C(=O)C(c1ccccc1)C1CCCC1` (centres unmarked) [Compound 556, 4-{Amino-[1-(2-cyclopentyl-2-phenyl-acetyl)-pyrrolidin-2-yl]-methyl}-N-pyridin-4-yl-benzamide], the values for the half-maximal inhibitory concentration (IC50) on PKC epsilon and against human ROCKα/ROCKII mix were 5 to 50 µM and 0.5 to 5 µM, respectively.
With `NC(c1ccc(C(=O)Nc2ccncc2)cc1)C1CCCN1C(=O)Cc1ccc(O)c([N+](=O)[O-])c1` (centres unmarked) [Compound 540, 4-(Amino-{1-[2-(4-hydroxy-3-nitro-phenyl)-acetyl]-pyrrolidin-2-yl}-methyl)-N-pyridin-4-yl-benzamide], the IC50 at PKC epsilon was 5 to 50 µM; on human ROCKα/ROCKII mix, 0.5 to 5 µM.
Consider `CC(C)(C)c1ccc(NC(=S)NCC(N)c2ccc(C(=O)Nc3ccncc3)cc2)cc1` (centres unmarked) [Compound 18, 4-{1-amino-2-[3-(4-tert-butyl-phenyl)-thioureido]-ethyl}-N-pyridin-4-yl-benzamide], for which the figures for the IC50 at PKC epsilon and at human ROCKα/ROCKII mix were 5 to 50 µM and 0.5 to 5 µM, respectively.
For `NC(c1ccc(C(=O)Nc2ccncc2)cc1)C1CCCN1C(=O)C1CCOc2ccccc21` (centres unmarked) [Compound 615, 4-{Amino-[1-(chroman-4-carbonyl)-pyrrolidin-2-yl]-methyl}-N-pyridin-4-yl-benzamide], the IC50 was in the range of 5 to 50 µM at PKC epsilon and 0.5 to 5 µM at human ROCKα/ROCKII mix.
In the same order, the values of `NC(CNC(=O)Nc1ccc(Cl)cc1)c1ccc(C(=O)Nc2ccncc2)cc1` (centres unmarked) [Compound 326, 4-{1-Amino-2-[3-(4-chloro-phenyl)-ureido]-ethyl}-N-pyridin-4-yl-benzamide] are 0.05 to 0.5 µM and 0.05 to 0.5 µM.
In the same order, the values of `NC(c1ccc(C(=O)Nc2ccncc2)cc1)C1CCCN1C(=O)C1(c2ccsc2)CC1` (centres unmarked) [Compound 551, 4-{Amino-[1-(1-thiophen-3-yl-cyclopropanecarbonyl)-pyrrolidin-2-yl]-methyl}-N-pyridin-4-yl-benzamide] are 5 to 50 µM and 0.5 to 5 µM.
The corresponding values for “4-{1-Amino-2-[methyl-(1- thiophen-3-yl- cyclopropanecarbonyl)- amino]-ethyl}- N-pyridin-4-yl-benzamide [Compound 450]” are 5 to 50 µM and 0.5 to 5 µM.
As to `NC(CNC(=O)c1cc2ccccc2[nH]1)c1ccc(C(=O)Nc2ccncc2)cc1` (centres unmarked) [Compound 130, 1H-Indole-2-carboxylic acid {2-amino-2-[4-(pyridin-4-ylcarbamoyl)-phenyl]-ethyl}-amide], the results for the IC50 at PKC epsilon (setting [1]) and on human ROCKα/ROCKII mix (setting [1]) were 5 to 50 µM and 0.5 to 5 µM, respectively.
For the molecule `CC1=C(C(=O)NCC(N)c2ccc(C(=O)Nc3ccncc3)cc2)Cc2ccccc21` (centres unmarked) [Compound 165, 3-Methyl-1H-indene-2-carboxylic acid {2-amino-2-[4-(pyridin-4-ylcarbamoyl)-phenyl]-ethyl}-amide], the half-inhibitory concentration (IC50) at PKC epsilon (setting [1]) and against human ROCKα/ROCKII mix (setting [1]) was 0.5 to 5 µM in each case.
On to `COCCNC(=O)CC(N)c1ccc(C(=O)Nc2ccncc2)cc1` (centres unmarked) [Compound 180, 4-[1-amino-2-(2-methoxy-ethylcarbamoyl)-ethyl]-N-pyridin-4-yl-benzamide], for which the IC50 was 0.5 to 5 µM on PKC epsilon (setting [2]) and 0.05 to 0.5 µM against human ROCKα/ROCKII mix (setting [2]).
As to `COc1ccc(OC)c(CCNC(=O)CC(N)c2ccc(C(=O)Nc3ccncc3)cc2)c1` (centres unmarked) [Compound 295, 4-{1-Amino-2-[2-(3,6-dimethoxy-phenyl)-ethylcarbamoyl]-ethyl}-N-pyridin-4-yl-benzamide], the concentration for half-maximal inhibition (IC50) fell in the range of 5 to 50 µM on PKC epsilon (setting [2]) and 0.05 to 0.5 µM against human ROCKα/ROCKII mix (setting [2]).
In the same order, the values of `NC(CC(=O)NCc1ccc(Br)cc1F)c1ccc(C(=O)Nc2ccncc2)cc1` (centres unmarked) [Compound 262, 4-[1-Amino-2-(4-bromo-2-fluoro-benzylcarbamoyl)-ethyl]-N-pyridin-4-yl-benzamide] are 0.5 to 5 µM and 0.05 to 0.5 µM.
In the case of `CCOCC(=O)NCC(N)c1ccc(C(=O)Nc2ccncc2)cc1` (centres unmarked) [Compound 62, 4-[1-amino-2-(2-ethoxy-acetylamino)-ethyl]-N-pyridin-4-yl-benzamide], the IC50 on PKC epsilon (setting [1]) was in the range of 5 to 50 µM; on human ROCKα/ROCKII mix (setting [1]) it was 0.5 to 5 µM.
Turning to `NC(c1ccc(C(=O)Nc2ccncc2)cc1)C1CCCN1C(=O)Cc1ccc(F)cc1Cl` (centres unmarked) [Compound 599, 4-(Amino-{1-[2-(2-chloro-4-fluoro-phenyl)-acetyl]-pyrrolidin-2-yl}-methyl)-N-pyridin-4-yl-benzamide], the half-maximal inhibitory concentration (IC50) on PKC epsilon and against human ROCKα/ROCKII mix was 0.5 to 5 µM in each case.
For `N[C@@H](CC(=O)NC1COc2ccccc21)c1ccc(C(=O)Nc2ccncc2)cc1` (mixture of isomers) [Compound 404, 4-[(S)-1-Amino-2-(2,3-dihydro-benzofuran-3-ylcarbamoyl)-ethyl]-N-pyridin-4-yl-benzamide dihydrochloric acid salt], the results for the IC50 at PKC epsilon and against human ROCKα/ROCKII mix were 0.5 to 5 µM and 0.05 to 0.5 µM, respectively.
As to `NC(c1ccc(C(=O)Nc2ccncc2)cc1)C1CCCN1C(=O)C1CCCCc2ccc(F)cc21` (centres unmarked) [Compound 620, 4-{Amino-[1-(3-fluoro-6,7,8,9-tetrahydro-5H-benzocycloheptene-5-carbonyl)-pyrrolidin-2-yl]-methyl}-N-pyridin-4-yl-benzamide], the IC50 at PKC epsilon and at human ROCKα/ROCKII mix was 5 to 50 µM each time.
For `NC(c1ccc(C(=O)Nc2ccncc2)cc1)C1CCCN1C(=O)C1(c2ccc(F)cc2)CCC1` (centres unmarked) [Compound 575, 4-(Amino-{1-[1-(4-fluoro-phenyl)-cyclobutanecarbonyl]-pyrrolidin-2-yl}-methyl)-N-pyridin-4-yl-benzamide], the IC50 on PKC epsilon and against human ROCKα/ROCKII mix was 0.5 to 5 µM in each case.
In the case of `Cc1ccccc1CNC(=O)CC(N)c1ccc(C(=O)Nc2ccncc2)cc1` (centres unmarked) [Compound 231, 4-[1-Amino-2-(2-methyl-benzylcarbamoyl)-ethyl]-N-pyridin-4-yl-benzamide], the half-maximal inhibitory concentration (IC50) is 0.5 to 5 µM at PKC epsilon (setting [2]) and 0.05 to 0.5 µM on human ROCKα/ROCKII mix (setting [2]).
In the same order, the values of `CCOc1ccc(CCNC(=O)CC(N)c2ccc(C(=O)Nc3ccncc3)cc2)cc1` (centres unmarked) [Compound 290] are 0.5 to 5 µM and 0.05 to 0.5 µM.
Regarding `NC(c1ccc(C(=O)Nc2ccncc2)cc1)C1CCCN1C(=O)Cc1cccc(Cl)c1` (centres unmarked) [Compound 560, 4-(Amino-{1-[2-(3-chloro-phenyl)-acetyl]-pyrrolidin-2-yl}-methyl)-N-pyridin-4-yl-benzamide], the IC50 is 5 to 50 µM on PKC epsilon and 0.5 to 5 µM against human ROCKα/ROCKII mix.
`N[C@H](CC(=O)N[C@@H]1COc2ccccc21)c1ccc(C(=O)Nc2ccncc2)cc1` [Compound 405, 4-{(R)-1-Amino-2-[(S)-(2,3-dihydro-benzofuran-3-yl)carbamoyl]-ethyl}-N-pyridin-4-yl-benzamide]: the concentration for half-maximal inhibition (IC50) at PKC epsilon and on human ROCKα/ROCKII mix was < 0.05 µM in each case.
On to `NC(CC(=O)NCc1cc(Cl)ccc1Cl)c1ccc(C(=O)Nc2ccncc2)cc1` (centres unmarked) [Compound 251, 4-[1-Amino-2-(3,6-dichloro-benzylcarbamoyl)-ethyl]-N-pyridin-4-yl-benzamide], for which the values for the IC50 on PKC epsilon (setting [2]) and against human ROCKα/ROCKII mix (setting [2]) were 0.5 to 5 µM and 0.05 to 0.5 µM, respectively.
Regarding `NC(CNC(=O)C1CCOc2ccccc21)c1ccc(C(=O)Nc2ccncc2)cc1` (centres unmarked) [Compound 390, Chroman-4-carboxylic acid {2-amino-2-[4-(pyridin-4-ylcarbamoyl)-phenyl]-ethyl}-amide], the half-inhibitory concentration (IC50) on PKC epsilon (setting [1]) and on human ROCKα/ROCKII mix (setting [1]) was 0.05 to 0.5 µM in each case.
On to `Cn1cccc1C(=O)NCC(N)c1ccc(C(=O)Nc2ccncc2)cc1` (centres unmarked) [Compound 121, 1-Methyl-1H-pyrrole-2-carboxylic acid {2-amino-2-[4-(pyridin-4-ylcarbamoyl)-phenyl]-ethyl}-amide], for which the half-inhibitory concentration (IC50) at PKC epsilon (setting [1]) and at human ROCKα/ROCKII mix (setting [1]) was 0.5 to 5 µM each time.
For `CC(C)CC(=O)NCC(N)c1ccc(C(=O)Nc2ccncc2)cc1` (centres unmarked) [Compound 34, 4-[1-Amino-2-(3-methyl-butyrylamino)-ethyl]-N-pyridin-4-yl-benzamide], the IC50 on PKC epsilon (setting [1]) and against human ROCKα/ROCKII mix (setting [1]) was 0.5 to 5 µM in each case.
Turning to `NC(CC(=O)NCc1ccc(C(F)(F)F)c(F)c1)c1ccc(C(=O)Nc2ccncc2)cc1` (centres unmarked) [Compound 267, 4-[1-Amino-2-(3-fluoro-4-trifluoromethyl-benzylcarbamoyl)-ethyl]-N-pyridin-4-yl-benzamide], the IC50 at PKC epsilon (setting [2]) was in the range of 0.5 to 5 µM; against human ROCKα/ROCKII mix (setting [2]), 0.05 to 0.5 µM.
In the case of `COc1ccccc1CC(=O)NCC(N)c1ccc(C(=O)Nc2ccncc2)cc1` (centres unmarked) [Compound 138, 4-{1-amino-2-[2-(2-methoxy-phenyl)-acetylamino]-ethyl}-N-pyridin-4-yl-benzamide], the results for the IC50 on PKC epsilon (setting [1]) and against human ROCKα/ROCKII mix (setting [1]) were 5 to 50 µM and 0.5 to 5 µM, respectively.
